Assay [1] has as its system mixture of 26 isogenic NL4-3 protease mutant viruses. Description: Selection for resistance in CEMx174 culture with escalating inhibitor, start mixture of 26 isogenic single mutants, Primer ID deep sequencing. It is filed as cell-based, HIV-1. The procedure:
. The selection experiments were performed under two separate starting conditions: first when the starting virus was generated from the NL4-3 clone (this clone closely approximates the clade B consensus for the protease amino acid sequence and will be referred to as ‘wild type’), then again when the starting virus was a mixture of 26 isogenic viruses each with a single mutation associated with drug resistance in the NL4-3 background. […] The initial inhibitor concentration started at low nanomolar concentrations and increased by a factor of 1.5 with each subsequent viral passage (the inhibitor concentration was increased only after the virus spread efficiently through the culture). […] For technical reasons, only five of the selections starting with the mixture of mutants reached an inhibitor concentration as high as 400 nM and are reported here (Figure 2—figure supplement 3). […]
CEMx174 cells were maintained in RPMI 1640 medium with 10% fetal calf serum and penicillin-streptomycin. […] Cell phenotypes were monitored for their ability to generate virus after transfection (293Ts), support viral replication (CEMx174), or report viral infection (TZM-bl). […]

In another assay the target is T1, wild-type NL4-3 protease (Human immunodeficiency virus type 1 group M subtype B, UniProt P12497, Q495K).
T1 construct: the gene encoding the desired HIV-1 protease was subcloned into the heat-inducible pXC35 expression vector; made in house
More on the design: method as in Lockbaum et al. (ACS Infect Dis. 2019 Feb 8; 5 (2): 316–325). The following applies: previously reported, ref Lockbaum et al. (ACS Infect Dis. 2019 Feb 8, 5 (2): 316–325), read-out: Ki WT; cited from earlier work.

In another assay the target is T2, I84V mutant protease (Human immunodeficiency virus type 1 group M subtype B, UniProt P12497, I572V/Q495K).
T2 construct: the gene encoding the desired HIV-1 protease was subcloned into the heat-inducible pXC35 expression vector; made in house
The arrangement: method as in Lockbaum et al. (ACS Infect Dis. 2019 Feb 8; 5 (2): 316–325). The following applies: I84V drug-resistant protease variant; previously reported; ref Lockbaum et al. (ACS Infect Dis. 2019 Feb 8; 5 (2): 316–325); cited from earlier work.

Assay [2] deals with T3, I50V/A71V mutant protease (Human immunodeficiency virus type 1 group M subtype B, UniProt P12497, A559V/I538V/Q495K).
T3 construct: the gene encoding the desired HIV-1 protease was subcloned into the heat-inducible pXC35 expression vector; made in house
The arrangement: method as in Lockbaum et al. (ACS Infect Dis. 2019 Feb 8; 5 (2): 316–325). The following applies: I50V/A71V drug-resistant protease variant; previously reported; ref Lockbaum et al. (ACS Infect Dis. 2019 Feb 8; 5 (2): 316–325); cited from earlier work.

For orientation: Ki means a dissociation constant, usually derived from enzyme kinetics or from competition with a known ligand. Consider `CCC(CC)CN(C[C@@H](O)[C@H](Cc1ccccc1)NC(=O)O[C@H]1CO[C@H]2OCC[C@H]21)S(=O)(=O)c1ccc(N)cc1` [UMASS-6], for which, in assay [1] (variant 13V/16E/32I/33F/45I/46I/54L/71V/76V/82F/84V, passage 53, [PI] 5000 nM), the “Abundance of variant at the last time point” value is given as 62.8%. The Ki on wild-type NL4-3 protease is less than 5 pM; on I84V mutant protease, 0.0128 ± 0.0031 nM; in assay [2], 0.1 ± 0.0099 nM.
Take `CCC(CC)CN(C[C@@H](O)[C@H](Cc1ccccc1)NC(=O)O[C@H]1CO[C@H]2OCC[C@H]21)S(=O)(=O)c1ccc(OC)cc1` [UMASS-7]: the “Abundance of variant at the last time point” value in assay [1] (variant 10F/46I/50V/63P/85V, passage 58, [PI] 400 nM) was found to be 21.0%.

The record behind these values is article PMC10065791 (eLife, 2023).
